This note sets out measurements from patent US11986445B2, “Nutritional composition and infant formula for promoting myelination of the brain” (SOCIÉTÉ DES PRODUITS NESTLÉ S.A., priority 2015, dated 2024).

In assay [1] the test system is brain myelination (myelin water fraction). Put plainly: Cross-sectional correlation of infant formula nutrient content with brain myelination (MRI myelin water fraction). It counts as in vivo, human. The settings on record: children up to 5 years fed different infant formulas. The text has this: This technique provides a quantitative measure, the Myelin Water Fraction (MWF), which is a surrogate marker of myelin content in the brain.
Infants included in this study were drawn from a larger longitudinal study of normal brain and behavioral development: the Brown University Assessment of Myelination and Behavior Across Maturation (BAMBAM). To focus on neurotypical development, children with known potential risk factors for learning, neurologic, or psychiatric disorders were specifically excluded during recruitment and enrollment. Thus, children with in utero alcohol or illicit substance exposure, premature (<37 weeks gestation) or multiple birth, fetal ultrasound abnormalities, complicated pregnancy (e.g., preeclampsia), APGAR scores <8, NICU admission, neurological disorder (e.g., head injury, epilepsy), psychiatric or developmental disorders in the infant, parents or siblings (including maternal depression requiring medication) were excluded. Ongoing screenings, such as the MCAT for autism, or CBCL for behavioral problems, were further used to remove enrolled children with clinically concerning behaviors or overt medical conditions (such as autism spectrum disorders).
A combination of retrospective and prospective data were acquired from parents via detailed medical histories and parental interview on the type of infant formula used, percentage of breastfeeding to formula feeding, and length of exclusive breastfeeding. This information was updated at each study visit, which occurred approximately every 6 months for children under 2 years, and yearly for older children. Using this information, children were categorized into one of 2 groups: #1. Exclusively formula-fed; and #2. Exclusively breastfed for at least 90 days (3 months). Children who were fed a combination of breastmilk and formula within 3 months were excluded from our analysis. Infants within the exclusively formula-fed group were further sub-divided based on parental reports of the main infant formula used throughout the first 3 months. Main formula was defined as that given 90% of the time or more (in the case were parents used an alternate brand during vacation, for example).
Using these criteria, 94 exclusively formula-fed infants and young children were selected into group #1. These included 13 children who received formula #2; 28 who received formula #5; 8 who received formula #3; 39 who received formula #4; 5 who received formula #1 and 1 who received formula #6. A sample of 52 exclusively breast-fed infants were also selected and matched to the over formula-fed group with regards to mean age, gestation duration, birth weight, male:female ratio, ethnicity ratio, maternal education, family size, and number of languages spoken in the home (in addition to English).

Assay [2] has as its system Neural Progenitor Cell (NPCs) from E14 mouse neocortex. The assay is described as follows: Neurosphere counts in 96-well plates. It counts as cell-based. The settings on record: Sphingomyelin Low dose (Dose 1: 10 nM); cells grown for 2 days. The procedure: (§1) Generation of Neural Progenitor Cell (NPCs) Libraries: • dissociation of E14 mouse neocortex
(§2) E14 pup brains were harvested and placed in ice cold DPBS (1×)+10% Pen/Strep, then they were dissected using a dissecting microscope. From each pup, one brain hemisphere was placed in 2 ml of Neurobasal media/10% P/S/10× Hepes and another brain hemisphere was placed in another tube.
(§3) The tissue from each tube was aseptically and manually dissociate into single cells, neurobasal complete medium was added and centrifuged at 130 G for 5 min. The tissue was then re-suspended in neurobasal complete media with GF and placed in a corning suspension culture dish 100 mm×20 mm (#430591). Cells were passage twice using a 1:3 ratio, after what they were centrifuged (130 g 5 min), resuspended in freezing media (10% DMSO and neurobasal complete media, no GF) and frozen in liquid nitrogen (LN2).
Vials were remove from LN2, quickly defrosted, and cells were transferred, dropwise, to a 15 mL conical flask. 10 mls of complete neurobasal media was added. Cells were transferred to a suspension culture dish, and placed in an incubator for 2 hours. At 1.5 hours, cells were examined. Based on the health and number, the number of plates needed was estimated and the appropriate amount of complete neurobasal media was warmed. After 2 hours, cells were put in a 15 mL conical tube and spun at 130 G, 5 min. […]

For assay [3] the test system is unchanged. The assay is described as follows: Monolayer culture NPC proliferation assay. It counts as cell-based. The following applies: Sphingomyelin low dose (Dose 1: 10 nM); 3 days culture. The method, then: as §1, §2, §3
Vials were remove from LN2, quickly defrosted, and cells were transferred, dropwise, to a 15 mL conical flask. 10 mls of complete neurobasal media was added. Cells were transferred to a suspension culture dish, and placed in an incubator for 2 hours. At 1.5 hours, cells were examined. […]
EDU incorporation was measured using Click-iT® EdU Alexa Fluor® 555 Imaging Kit (Life technologies, #c10338). […]

With `CCCCC/C=C\C/C=C\C/C=C\C/C=C\CCCC(=O)O` [AA, arachidonic acid], the “association of nutrient with myelination (myelin water fraction) over time in the brain” value in assay [1] is recorded as “an association with myelination (myelin water fraction) was observed”.
On the same count and under the same terms, under `[Ca+2]` [calcium] stands “an association with myelination (myelin water fraction) was observed”; under `[Mg+2]` [magnesium], “an association with myelination (myelin water fraction) was observed”; under `[P]` [phosphorus], “an association with myelination (myelin water fraction) was observed”.
Regarding `[Zn]` [zinc], in assay [1], the “association of nutrient with myelination (myelin water fraction) over time in the brain” value is listed as “an association with myelination (myelin water fraction) was observed”.
With Sphingomyelin, in assay [1], the “association of nutrient with myelination (myelin water fraction) over time in the brain” value is listed as “an association with myelination (myelin water fraction) was observed”. Moreover, the “number of neurospheres, Average (Mean)” value in assay [2] is 94. In addition, the “neuronal proliferation, DAPI” value in assay [3] is listed as 280.
Turning to iron, the “association of nutrient with myelination (myelin water fraction) over time in the brain” value in assay [1] is reported as “an association with myelination (myelin water fraction) was observed”.
As to phosphatidylcholine, the “association of nutrient with myelination (myelin water fraction) over time in the brain” value in assay [1] is “an association with myelination (myelin water fraction) was observed”.
As for phosphatidylinositol, the “association of nutrient with myelination (myelin water fraction) over time in the brain” value in assay [1] is given as “an association with myelination (myelin water fraction) was observed”.
Turning to vitamin B12, the “association of nutrient with myelination (myelin water fraction) over time in the brain” value in assay [1] is recorded as “an association with myelination (myelin water fraction) was observed”.
